Results from PMC8397403, “Physiologically Based Pharmacokinetic Modeling of Transporter-Mediated Hepatic Disposition of Imaging Biomarker Gadoxetate in Rats” (Molecular Pharmaceutics, 2021).
Where “and” joins values, the source holds several entries; their conditions need not be identical. Equal entries are not always repeated.

Test system: active uptake transport of gadoxetate into the liver
Assay: Simultaneous PBPK fitting of gadoxetate DCE-MRI data in control and rifampicin phases
Assay type: in vivo, rat
Conditions: value (CV)
Protocol: DCE–MRI data generated using the 3D Fast Low Angle Shot RF-spoiled gradient echo sequence (FLASH) protocol in male Wistar-Han rats were used for assessing the PBPK IVIVE performances and for obtaining some of the PBPK parameters within the bottom-up and top-down approaches, respectively. The DCE–MRI data were acquired in a multicenter study at two magnetic field strengths, 4.7 and 7 T. Gadoxetate was administered at a dose of 25 μmol/kg, either alone or 1 h after IV administration of 10 mg/kg rifampicin. When gadoxetate was administered alone (control arm), 43 profiles of blood, spleen, and liver measured at a field strength of 4.7 T and 52 profiles of blood, spleen, and liver measured at 7 T were available. In the case of gadoxetate administered with rifampicin, 7 blood, spleen, and liver profiles at a field strength equal to 4.7 T and 6 at 7 T were available. All gadoxetate DCE–MRI data and study protocols are detailed in a companion paper (Hines et al. in submission).
The DCE–MRI data used in this study were reported as ΔR1. Therefore, the relationship between the compartmental concentrations represented by the PBPK model state variables and the ΔR1 measurements for the blood, liver, and spleen needed to be described. The linear relationship in eq 4 is not valid for ΔR1 of the liver, ΔR1,liv, because intracellular and extracellular tissue compartments have different relaxivities. To derive ΔR1,liv, a volume fraction-weighted mean of the contributions of the gadoxetate concentration in all the compartments used to model the liver was performed.[40] In the spleen, the entire distribution space was supposed to have the same relaxivity as blood and, therefore, eq 4 can be applied directly to derive spleen concentrations from ΔR1,spl. Concerning the blood, the blood value for r1 in Table 1 allows ΔR1,b to be directly related to the blood concentration. The relations between ΔR1,liv, ΔR1,spl, and ΔR1,b and the concentrations of the PBPK compartments are shown in eq 7. [drawing 7] 7 cspl,extr is the extracellular concentration in the spleen and Vspl,extr is the extracellular volume of the spleen and Vliv and Vspl are the whole volumes of liver and spleen. r1,liv,extr and r1,spl,extr were assumed to be equal to r1,b, as described in Hines et al.
In fact, each of the data are acquired during a time interval Δt, which was 57 s in the current dataset. To account for this characteristic when performing the parameter estimation, the residuals were calculated as the difference of the observed ΔR1 corresponding to a given time interval minus the mean of the simulated PBPK ΔR1 within the same interval, as explained in the Supporting Information, Section 4.
The extent of interaction with rifampicin was estimated by performing a simultaneous fitting of gadoxetate ΔR1 in the control and inhibitory phase. In this analysis, PS was considered the same for both phases, whereas the other parameters were separately estimated in the absence (CLactive and CLbiliary) and in the presence of rifampicin (CLactive,inh and CLbiliary,inh). CLbiliary,inh was considered to account for possible inhibition of Mrp2 in rat by rifampicin, as previously reported.[45] To understand the impact of the inclusion of the liver-imaging data on the parameter optimization, the simultaneous estimation was also performed considering only the blood data.
All the PBPK analyses were performed in MATLAB R2020a,[50] the ordinary differential equations were solved with the function “ode15s”, while the parameter optimization was performed with the function “lsqnonlin”. The uncertainty of the parameters estimate was evaluated with the case-bootstrap,[51] using 1000 samples.

[1] = gadoxetate 1 h after rifampicin i.v. 10 mg/kg, simultaneous fit
[2] = simultaneous fit, 5-compartment liver model
[3] = with rifampicin, 5-compartment liver model

SMILES: CCOc1ccc(C[C@@H](CN(CCN(CC(=O)[O-])CC(=O)[O-])CC(=O)[O-])N(CC(=O)[O-])CC(=O)[O-])cc1.[Gd+3].[H+].[H+] [gadoxetate]
- CLactive, estimated value (with rifampicin) (CLactive,inh) [1]: 0.095 (16.1%) L/h
- CLbiliary, estimated value (with rifampicin) (CLbiliary,inh) [1]: 0.08 (16.7%) L/h
- CLactive, estimated value (control) (simultaneous fit of control and rifampicin phases, blood, spleen, liver ΔR1): 2.38 (13.6%) L/h
- CLbiliary, estimated value (control) (simultaneous fit of control and rifampicin phases): 0.07 (3.1%) L/h
- PS, blood ΔR1 only (simultaneous fit using only blood ΔR1, both groups): 2.07 (20 %) L/h
- CLactive control group, blood ΔR1 only (simultaneous fit using only blood ΔR1): 1.82 (30 %) L/h and 1.82 L/h
- CLactive control group, 5-compartment liver model [2]: 1.45 (7.4 %) L/h
- CLbiliary control group, 5-compartment liver model [2]: 0.07 (3.2 %) L/h
- PS, 5-compartment liver model (simultaneous fit, both groups): 0.81 (7.2 %) L/h
- PS, estimated value (simultaneous fit, same for both phases): 0.71 (5.7%) L/h
- CLactive rifampicin group (CLactive,inh), blood ΔR1 only (with rifampicin 10 mg/kg, simultaneous fit using only blood ΔR1): 0.29 (45 %) L/h and 0.29 L/h
- CLactive rifampicin group, 5-compartment liver model [3]: 0.065 (28.2 %) L/h
- CLbiliary rifampicin group, 5-compartment liver model [3]: 0.07 (26.6 %) L/h
